Results as given in PubChem BioAssay (NCI).
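48-hour exposure; five concentrations; linearly interpolated endpoints. The concentration for 50% growth inhibition is given as GI50. Definition used: TGI = concentration required for complete inhibition of growth.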

Assays:
Test in all cases: NCI tumour cell line growth inhibition, 48 h
[1] = tested on: K-562 leukemia
[2] = tested on: SK-MEL-5 melanoma
[3] = tested on: SNB-19 CNS
[4] = tested on: MDA-MB-435
[5] = tested on: TK-10 renal
[6] = tested on: UO-31 renal
[7] = tested on: HT29 colon
[8] = tested on: SK-MEL-28 melanoma
[9] = tested on: UACC-62 melanoma
[10] = tested on: SK-OV-3 ovarian

Compound: Cn1cc(-c2ccc3cc(-c4ccc(CC(=O)Nc5cc(C(C)(C)C)on5)cc4)cnc3c2)cn1
- GI50 [1]: 1.85 µM
- TGI [1]: > 100 µM
- GI50 [2]: 2.31 µM
- TGI [2]: 6.55 µM
- GI50 [3]: 2.18 µM
- TGI [3]: 8.68 µM
- GI50 [4]: 1.43 µM
- TGI [4]: 3.54 µM
- GI50 [5]: 1.63 µM
- TGI [5]: 10.4 µM
- GI50 [6]: 0.382 µM
- TGI [6]: 3.14 µM
- GI50 [7]: 2.26 µM
- TGI [7]: > 100 µM
- GI50 [8]: 1.95 µM
- TGI [8]: 5.25 µM
- GI50 [9]: 1.02 µM
- TGI [9]: 3.12 µM
- GI50 [10]: 0.657 µM
- TGI [10]: > 100 µM

Compound: Clc1ccc(-c2cn3c(nc4ccccc43)c(/C=C/c3ccco3)n2)cc1
- TGI [1]: > 100 µM
- TGI [2]: > 100 µM
- TGI [3]: > 100 µM
- TGI [4]: > 100 µM
- TGI [5]: 82 µM
- TGI [6]: > 100 µM
- TGI [7]: > 100 µM
- TGI [8]: > 100 µM
- TGI [9]: > 100 µM
- TGI [10]: > 100 µM

Compound: Cc1ccc(-c2nc(N/N=C/c3ccc(O)cc3)c3ccccc3n2)cc1
- TGI [1]: > 100 µM
- TGI [2]: 15.4 µM
- TGI [3]: > 100 µM
- TGI [4]: 48.2 µM
- TGI [5]: 68.5 µM
- TGI [6]: 24.7 µM
- TGI [7]: > 100 µM
- TGI [8]: 81.5 µM
- TGI [9]: 26.4 µM
- TGI [10]: > 100 µM

Compound: C=C1C(O)C[C@H](OC(C)=O)[C@]2(C)C1C(OC(C)=O)[C@]1(C(C)(C)O)CC(O)C(C)=C1[C@@H](OC(=O)c1ccccc1)C2OC(C)=O (stereo not given in full)
- TGI [1]: > 10 µM
- TGI [2]: > 10 µM
- TGI [3]: > 10 µM
- TGI [4]: > 10 µM
- TGI [5]: > 10 µM
- TGI [6]: > 10 µM
- TGI [7]: > 10 µM
- TGI [8]: > 10 µM
- TGI [9]: > 10 µM
- TGI [10]: > 10 µM

Compound: O=C(N=c1ccc2nc(=O)[nH]n(O)c-2c1)C(F)(F)F
- TGI [1]: > 100 µM
- TGI [2]: > 100 µM
- TGI [3]: > 100 µM
- TGI [4]: > 100 µM
- TGI [5]: > 100 µM
- TGI [6]: > 100 µM
- TGI [7]: > 100 µM
- TGI [8]: > 100 µM
- TGI [9]: > 100 µM
- TGI [10]: > 100 µM

Compound: COc1cc2c(c(O)c1OC)CC1CCC(=O)N1C2c1cccc2ccccc12 (stereo not given)
- TGI [1]: > 100 µM
- TGI [2]: 26.2 µM
- TGI [3]: 45 µM
- TGI [4]: 40.4 µM
- TGI [5]: > 100 µM
- TGI [6]: 55.4 µM
- TGI [7]: 34.5 µM
- TGI [8]: 52.2 µM
- TGI [9]: 30.9 µM
- TGI [10]: > 100 µM
